Read-outs that look alike come from different tables or passages of the source.
Assays:
[1] = test system: MK801 Stereotypy; test: MK-801 Stereotypy in Mice; format: in vivo; settings: Mus musculus, mice, MK-801 0.2 mg/kg, read-out: Antagonism of MK801 Stereotypy % Inhib. @ 20 mg/kg (route)
Description: Mk-801 dose-dependently induces characteristic stereotypy marked by locomotion and falling behavior. This MK-801 induced behavior can be antagonized by novel neuroleptic agents. This assay can also assess time course effects following drug administration.
CD-1 or C57 male mice are individually placed in activity boxes (8 mice/drug) and allowed to acclimate for 60 minutes. The mice are then administered test compounds either i.p., s.c., or p.o., at 15, 30, or 60 minutes prior to MK-801 (0.2 mg/kg) administration. Mice are observed for the presence of locomotion and falling behaviors 15 minutes following MK-801. For the duration of action studies the test compounds are administered i.p., s.c., or p.o., at 30, 60, 120, 180, and 240 minutes prior to MK-801 administration.

[2] = molecular target: T1, human D4 receptor (D4.2 sub-type) (Homo sapiens, UniProt P21917, DEL265-296); test: D4 receptor binding assay (3H-spiperone displacement); settings: 3H-spiperone 0.25 nM, membranes of HEK 298 cells with human D4.2; Cheng-Prusoff from IC50; read-out: D4 RBA Ki
T1 construct: expressed in transfected cells
T1 sequence (P21917 with tags, fused parts or gaps DEL265-296): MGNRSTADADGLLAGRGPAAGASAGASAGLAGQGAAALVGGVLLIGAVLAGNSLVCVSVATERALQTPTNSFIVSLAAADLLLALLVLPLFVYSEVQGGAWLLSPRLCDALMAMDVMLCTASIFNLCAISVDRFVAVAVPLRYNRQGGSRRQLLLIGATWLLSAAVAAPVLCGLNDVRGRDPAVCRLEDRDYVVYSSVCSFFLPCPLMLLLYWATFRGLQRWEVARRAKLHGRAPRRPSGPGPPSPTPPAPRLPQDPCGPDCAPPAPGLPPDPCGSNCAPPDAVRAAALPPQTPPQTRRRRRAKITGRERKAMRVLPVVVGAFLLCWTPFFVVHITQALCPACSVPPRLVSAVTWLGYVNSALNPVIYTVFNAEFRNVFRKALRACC
Description: D4 receptor-binding affinities of the compounds were evaluated according to their ability to reduce binding of ^3H-spiperone as compared to the reference compound clozapine. The potency of the test compound to reduce ^3H-spiperone binding directly correlated to its binding affinity for the receptor.
[…] (human embryonic kidney) cells stably transfected with human D4 receptor (D4.2 sub-type) were grown in NUNC cell factories for 5 days (75% confluency) without a media change and removed with versene (approximately 19 mg of cells per cell factory tray). The cells were then centrifuged in a Sorval centrifuge for 10 min, 5000 rpm (GS3 rotor) and the pellets quickly frozen in liquid nitrogen and stored at −80° C. until used in binding assay. When used in the assay, cells were thawed on ice for 20 min and then 10 mL of incubation buffer (50 mM Tris, 1 mM EDTA, 4 mM MgCl2, 5 mM KCl, 1.5 mM CaCl2, 120 mM NaCl, pH 7.4) was added. The cells were then vortexed to resuspend pellet and homogenized with a Kinematica, CH-6010 Kriens-LU, homogenizer for 15 seconds at setting 7. Concentration of receptor protein was determined using the Pierce BCA assay.
The incubation was started by the addition of 100 μl (50 μg protein) membrane homogenate to a solution of 300 μl incubation buffer and 100 μl (0.25 nM final conc.) ^3H-spiperone (90 Ci/mmol, Amersham, diluted in borosilicate glass vial) in 96-well polypropylene plates (1 mL per well). The plates were vortexed and incubated at room temperature for 90 minutes. The binding reaction was stopped by filtering using a Packard Harvester. The samples were filtered under vacuum over glass fibre filter plates (Whatman GF/B) presoaked for 2 hours in 0.3% polyethylenimine (PEI) in 50 mM Tris buffer (pH 7.4). The filters were then washed 6 times with 7 mL ice cold 50 mM Tris buffer (pH 7.4). The filter plates were dried overnight and 35 μl of Microscint-O (Packard) was added. The plates were sealed and counted in the Packard Top Count (3 minutes per well).
The incubation was started by the addition of 100 μl (50 μg protein) membrane homogenate to a solution of 200 μl incubation buffer, 100 μl ^3H-spiperone (90 Ci/mmol, Amersham, diluted in borosilicate glass vial to 0.25 nM final conc.) and 100 μl (30 μM final conc.) of fresh dopamine (Research Biochemicals Inc., light protected and dissolved in incubation buffer) in 96-well polypropylene plates (1 mL per well). The plates were vortexed and incubated at room temperature for 90 minutes at which time the binding reaction was stopped by filtering. The filters were washed and counted using the same procedure as in the total binding assay described above to give the nonspecific binding value (NSB).
The incubation was started by the addition, in 96-well polypropylene plates (1 mL per well), of 100 μl (50 μg protein) membrane homogenate to a solution of 200 μl incubation buffer, 100 μl (0.25 nM final conc.) ^3H-spiperone (90 Ci/mmol, Amersham, diluted in borosilicate glass vial) and 100 μl of test compound that was prepared from 1 mM stock dissolved in DMSO and stored at −20° C. in polypropylene cryogenic storage vials until dilution in incubation buffer in 96-well polypropylene plates. The plates were vortexed and incubated at room temperature for 90 minutes at which time the binding reaction was stopped by filtering. The filters were washed and counted using the same procedure as in the total binding assay described above to give the displacement binding value (BD).
The test compounds were initially assayed at 1 and 0.1 μM and then at a range of concentrations chosen such that the middle dose would cause about 50% inhibition of ^3H-spiperone binding. Specific binding in the absence of test compound (B0) was the difference of total binding (BT) minus non-specific binding (NSB) and similarly specific binding (in the presence of test compound) (B) was the difference of displacement binding (BD) minus non-specific binding (NSB). […]

[3] = molecular target: human D4 receptor with seven repeat units (D4.7 variant); settings: read-out: EC50 of dopamine; cited from earlier work

| Ki [2] | SMILES | inhibition in vivo at 20 mg/kg ([1]; 20 mg/kg ip) | further results |
| --- | --- | --- | --- |
| 11 nM | C[C@@](O)(CNCc1ccc(F)cc1)COc1cccc(-c2noc3ccsc23)c1 [Example 15] | – | inhibition in vivo at 20 mg/kg ([1]; 20 mg/kg sc): 50% |
| 13 nM | C[C@](O)(CNCc1ccc(Cl)c(Cl)c1)COc1cccc(-c2noc3ccsc23)c1 [Example 54] | – | inhibition in vivo at 20 mg/kg ([1]; 20 mg/kg po): 62.5% |

The remaining lines, values behind:

| SMILES | Ki [2] | inhibition in vivo at 20 mg/kg ([1]; 20 mg/kg ip) | further results |
| --- | --- | --- | --- |
| C[C@@](O)(CNCc1cccs1)COc1cccc(-c2noc3ccsc23)c1.O=C(O)/C=C\C(=O)O [Compound 5, (2R)-2-methyl-1-(3-thieno[2,3-d]isoxazol-3-yl-phenoxy)-3-[thienophen-2-ylmethyl)-amino-propan-2-ol maleate] | – | 37.5% | melting point: 51 to 52 °C |
| O[C@H](CNCc1ccsc1)COc1cccc(-c2noc3ccsc23)c1 [Example 9] | 7.6 nM | 12% | – |
| NCCc1ccc(O)c(O)c1 [dopamine] | – | – | EC50 [3]: 40 nM |

Reference: patent publication US7125903B1 (Aventis Pharmaceuticals Inc., priority 1999, dated 2006)
